Active and inactive are the calls of the source.
Experiments:
[1] = cytotoxicity in HPDE-C7 cells, cell-based, fluorescence, HTS (AID 430); assay type: functional; settings: Homo sapiens
[2] = cytotoxicity in KRAS-transformed pancreatic duct cells, primary screen, cell-based, fluorescence, HTS (AID 431); assay type: functional; settings: Homo sapiens;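 also: cell line used: HPDE-C7K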
[3] = Luminescence Cell-Based Dose Retest to Confirm Inhibitors of Cancer Stem Cells. [Related pubchem assays (depositor defined):AID2717, AID2721]; assay type: functional; settings: Homo sapiens
Estrogen receptor beta [4] = biological target: T1, Estrogen receptor beta (Homo sapiens, UniProt Q92731);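 also: recombinant ER-beta bound to coactivator SRC1 peptide in presence of estradiol agonist; inhibitors block coactivator peptide binding and lower the FRET signal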
Estrogen receptor beta [5] = biological target: T1, Estrogen receptor beta; experiment: ERβ–SRC-3 coactivator interaction inhibitors, confirmation, orthogonal assay, biochemical, ELISA, streptavidin-HRP readout (AID 1060)
[6] = biological target: T2, Calpain-2 catalytic subunit (Sus scrofa, UniProt P43367); experiment: pig calpain II inhibitor potency, dose response, biochemical, fluorogenic peptide substrate (AID 1420); assay type: functional
T2 sequence (P43367 whole entry): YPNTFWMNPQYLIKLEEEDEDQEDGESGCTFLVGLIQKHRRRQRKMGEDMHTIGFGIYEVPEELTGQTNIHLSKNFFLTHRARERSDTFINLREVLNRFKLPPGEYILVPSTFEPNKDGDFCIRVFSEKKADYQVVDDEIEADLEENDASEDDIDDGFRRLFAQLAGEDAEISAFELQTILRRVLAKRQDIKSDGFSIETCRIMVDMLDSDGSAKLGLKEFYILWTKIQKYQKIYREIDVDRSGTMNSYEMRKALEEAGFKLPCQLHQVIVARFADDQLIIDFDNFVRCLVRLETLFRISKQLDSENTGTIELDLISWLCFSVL

[7] = Luminescence Cell-Based Dose Response HTS to Identify Inhibitors of 5'UTR Stem-Loop Driven Prion Protein mRNA Translation in H4 Neuroglioblastoma Cells. [Related pubchem assays: 1827 (Project Summary), 1813 (Primary HTS)]; assay type: functional
[8] = inhibitors of SNCA 5'UTR-driven reporter translation, confirmation, H4 neuroglioma cells, luminescence (AID 1988); assay type: functional, cell-based
Leucine aminopeptidase = biological target: T3, Leucine aminopeptidase (Plasmodium falciparum 3D7, UniProt Q8IL11); experiment: P. falciparum M17LAP inhibitors, primary screen, biochemical, fluorogenic H-Leu-NHMec substrate, 1536-well (AID 1619); assay type: functional
T3 sequence (Q8IL11 whole entry): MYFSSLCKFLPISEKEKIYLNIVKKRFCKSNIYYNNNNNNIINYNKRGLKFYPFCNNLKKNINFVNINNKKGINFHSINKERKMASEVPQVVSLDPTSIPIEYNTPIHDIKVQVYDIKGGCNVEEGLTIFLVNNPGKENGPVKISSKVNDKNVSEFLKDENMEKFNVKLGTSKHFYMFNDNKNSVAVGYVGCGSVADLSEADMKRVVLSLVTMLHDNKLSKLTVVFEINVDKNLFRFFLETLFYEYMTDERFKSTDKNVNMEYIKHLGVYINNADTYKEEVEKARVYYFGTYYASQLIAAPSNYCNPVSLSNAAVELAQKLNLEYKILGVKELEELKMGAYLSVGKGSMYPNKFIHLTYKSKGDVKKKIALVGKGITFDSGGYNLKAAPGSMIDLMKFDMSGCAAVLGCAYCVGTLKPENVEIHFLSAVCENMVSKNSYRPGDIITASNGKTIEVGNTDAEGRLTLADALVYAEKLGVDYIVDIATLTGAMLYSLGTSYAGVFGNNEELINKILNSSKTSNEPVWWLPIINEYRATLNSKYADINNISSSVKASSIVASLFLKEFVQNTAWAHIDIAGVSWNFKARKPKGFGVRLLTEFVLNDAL

[9] = biological target: T4, Replicative DNA helicase DnaB (Mycobacterium tuberculosis, UniProt P9WMR3); experiment: DnaB intein splicing inhibitors, dose response, biochemical, cell-free fluorescence (AID 449749); assay type: functional
T4 sequence (P9WMR3 whole entry): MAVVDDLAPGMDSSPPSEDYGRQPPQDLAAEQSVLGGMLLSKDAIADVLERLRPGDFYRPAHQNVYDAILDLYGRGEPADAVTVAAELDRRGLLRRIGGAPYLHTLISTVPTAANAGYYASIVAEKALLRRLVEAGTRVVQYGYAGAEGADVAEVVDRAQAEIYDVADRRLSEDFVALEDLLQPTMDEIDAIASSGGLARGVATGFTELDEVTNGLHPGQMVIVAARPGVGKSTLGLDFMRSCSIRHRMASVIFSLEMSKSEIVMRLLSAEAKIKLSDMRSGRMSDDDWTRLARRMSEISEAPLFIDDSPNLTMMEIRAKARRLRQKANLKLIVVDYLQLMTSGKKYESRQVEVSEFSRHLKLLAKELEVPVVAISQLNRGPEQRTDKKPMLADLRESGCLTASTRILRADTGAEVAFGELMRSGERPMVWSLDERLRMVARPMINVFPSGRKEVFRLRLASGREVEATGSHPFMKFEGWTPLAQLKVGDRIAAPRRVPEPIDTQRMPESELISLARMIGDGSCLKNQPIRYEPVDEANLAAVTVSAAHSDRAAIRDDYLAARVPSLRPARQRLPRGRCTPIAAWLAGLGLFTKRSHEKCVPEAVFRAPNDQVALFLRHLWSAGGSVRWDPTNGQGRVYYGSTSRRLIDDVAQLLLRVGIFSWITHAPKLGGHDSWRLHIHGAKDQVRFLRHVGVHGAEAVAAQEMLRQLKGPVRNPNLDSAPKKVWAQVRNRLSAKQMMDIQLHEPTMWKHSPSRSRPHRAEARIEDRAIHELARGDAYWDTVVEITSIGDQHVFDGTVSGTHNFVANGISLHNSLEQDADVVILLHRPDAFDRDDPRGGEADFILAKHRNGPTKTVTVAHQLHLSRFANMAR

Protein RecA = biological target: T5, Protein RecA (Mycobacterium tuberculosis, UniProt P9WHJ3); experiment: Fluorescence Cell-Free Homogeneous Dose Retest to Identify Inhibitors of RecA-Intein Splicing Activity. [Related pubchem assays (depositor defined):AID2097, AID2223, AID489010, AID492950]; assay type: functional
T5 sequence (P9WHJ3 whole entry): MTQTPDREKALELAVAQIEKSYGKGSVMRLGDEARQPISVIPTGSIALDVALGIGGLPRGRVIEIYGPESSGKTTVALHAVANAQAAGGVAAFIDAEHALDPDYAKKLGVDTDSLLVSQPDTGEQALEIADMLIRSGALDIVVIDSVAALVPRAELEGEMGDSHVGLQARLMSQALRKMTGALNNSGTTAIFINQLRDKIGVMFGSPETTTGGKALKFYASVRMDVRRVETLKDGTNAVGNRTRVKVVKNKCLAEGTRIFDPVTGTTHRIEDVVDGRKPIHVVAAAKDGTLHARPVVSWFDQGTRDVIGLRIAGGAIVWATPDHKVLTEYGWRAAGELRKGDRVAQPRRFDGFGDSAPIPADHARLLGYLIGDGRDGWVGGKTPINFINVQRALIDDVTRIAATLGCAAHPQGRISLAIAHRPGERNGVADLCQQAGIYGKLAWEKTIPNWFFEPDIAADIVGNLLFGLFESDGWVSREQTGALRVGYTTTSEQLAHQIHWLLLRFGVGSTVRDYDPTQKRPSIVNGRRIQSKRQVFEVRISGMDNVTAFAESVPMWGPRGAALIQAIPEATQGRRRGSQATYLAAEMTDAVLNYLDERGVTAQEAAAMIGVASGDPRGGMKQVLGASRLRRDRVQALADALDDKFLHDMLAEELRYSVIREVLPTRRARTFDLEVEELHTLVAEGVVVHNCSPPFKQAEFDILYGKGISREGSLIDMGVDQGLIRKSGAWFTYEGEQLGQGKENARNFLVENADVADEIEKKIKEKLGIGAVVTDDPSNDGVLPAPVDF

[10] = A cytotoxicity screen of small molecule inhibitors of the PhoP region in Salmonella typhi identified in the primary screen. [Related pubchem assays: 1850, 1864, 1985 ]; assay type: functional
Cytochrome P450 2D6 = Cytochrome P450 2D6 (Homo sapiens, UniProt P10635);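 also: CYP2D6 member of a cytochrome P450 panel assay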
Cytochrome P450 2C9 = Cytochrome P450 2C9 (Homo sapiens, UniProt P11712)
[11] = HEp-2 cell cytotoxicity, dose response, cytotoxicity control for RSV inhibitor project, HTS (AID 2410); assay type: functional; settings: human respiratory syncytial virus
[12] = Artemis endonuclease inhibitor potency, dose response, biochemical, fluorescence intensity (AID 720701); assay type: functional;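 also: Artemis endonuclease enzyme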
[13] = biological target: Voltage-dependent T-type calcium channel subunit alpha-1H (Homo sapiens, UniProt O95180); assay type: functional;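 also: channel activity triggered by adding a high calcium stimulation buffer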
[14] = biological target: FAD-linked sulfhydryl oxidase ALR (Homo sapiens, UniProt P55789); experiment: inhibitors of human ALR sulfhydryl oxidase, dose response, biochemical, H2O2 detection, luminescence, cherry-pick (AID 493248)
[15] = biological target: T6, Rac GTPase-activating protein 1 (Homo sapiens, UniProt Q9H0H5); experiment: MgcRacGAP GTPase-activating activity inhibitors, confirmation, biochemical, ADP Hunter fluorescence, primary and confirmatory (AID 624330); assay type: functional
T6 sequence (Q9H0H5 whole entry): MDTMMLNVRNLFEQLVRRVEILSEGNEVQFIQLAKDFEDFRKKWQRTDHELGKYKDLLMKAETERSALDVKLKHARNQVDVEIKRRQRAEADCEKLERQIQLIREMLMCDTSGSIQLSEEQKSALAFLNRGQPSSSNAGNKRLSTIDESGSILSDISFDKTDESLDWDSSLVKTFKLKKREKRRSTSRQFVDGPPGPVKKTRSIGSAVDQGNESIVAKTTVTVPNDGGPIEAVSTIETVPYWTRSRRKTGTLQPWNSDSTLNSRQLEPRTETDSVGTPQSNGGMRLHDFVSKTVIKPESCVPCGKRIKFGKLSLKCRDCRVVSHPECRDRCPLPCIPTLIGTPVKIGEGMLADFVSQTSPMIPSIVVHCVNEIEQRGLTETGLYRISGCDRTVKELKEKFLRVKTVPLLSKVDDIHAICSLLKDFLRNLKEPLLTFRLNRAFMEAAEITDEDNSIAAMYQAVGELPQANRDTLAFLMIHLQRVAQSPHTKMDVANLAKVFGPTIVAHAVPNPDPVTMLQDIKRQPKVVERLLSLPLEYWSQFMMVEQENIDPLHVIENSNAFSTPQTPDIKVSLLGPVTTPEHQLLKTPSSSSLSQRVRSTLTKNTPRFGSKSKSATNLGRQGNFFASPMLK

T1 sequence (Q92731 whole entry): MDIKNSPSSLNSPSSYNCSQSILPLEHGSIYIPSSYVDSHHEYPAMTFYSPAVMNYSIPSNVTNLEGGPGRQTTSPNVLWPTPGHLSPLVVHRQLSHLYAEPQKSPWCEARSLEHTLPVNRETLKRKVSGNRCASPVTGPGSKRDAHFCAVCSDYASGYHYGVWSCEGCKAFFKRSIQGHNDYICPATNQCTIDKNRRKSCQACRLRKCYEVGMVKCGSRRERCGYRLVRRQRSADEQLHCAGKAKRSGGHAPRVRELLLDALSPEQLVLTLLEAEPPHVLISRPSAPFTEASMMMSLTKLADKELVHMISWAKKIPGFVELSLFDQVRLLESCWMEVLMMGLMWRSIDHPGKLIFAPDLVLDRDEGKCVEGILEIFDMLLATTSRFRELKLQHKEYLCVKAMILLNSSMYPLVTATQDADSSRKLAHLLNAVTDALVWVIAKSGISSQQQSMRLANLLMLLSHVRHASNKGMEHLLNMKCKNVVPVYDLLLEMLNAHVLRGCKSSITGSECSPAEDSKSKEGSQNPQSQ
Sequence of Cytochrome P450 2C9 (P11712 whole entry): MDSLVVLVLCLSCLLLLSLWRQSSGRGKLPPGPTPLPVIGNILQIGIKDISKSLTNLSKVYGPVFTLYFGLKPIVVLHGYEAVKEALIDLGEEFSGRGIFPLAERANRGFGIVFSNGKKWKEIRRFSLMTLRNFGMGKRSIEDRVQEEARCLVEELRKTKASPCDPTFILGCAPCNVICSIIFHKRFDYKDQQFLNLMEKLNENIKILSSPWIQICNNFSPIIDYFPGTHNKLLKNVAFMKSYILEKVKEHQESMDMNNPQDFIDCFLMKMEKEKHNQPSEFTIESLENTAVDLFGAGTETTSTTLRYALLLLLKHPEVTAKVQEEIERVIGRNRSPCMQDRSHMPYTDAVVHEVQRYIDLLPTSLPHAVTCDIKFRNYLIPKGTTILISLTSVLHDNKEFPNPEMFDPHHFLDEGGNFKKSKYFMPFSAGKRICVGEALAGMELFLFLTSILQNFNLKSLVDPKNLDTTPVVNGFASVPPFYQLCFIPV
Sequence of FAD-linked sulfhydryl oxidase ALR (P55789 whole entry): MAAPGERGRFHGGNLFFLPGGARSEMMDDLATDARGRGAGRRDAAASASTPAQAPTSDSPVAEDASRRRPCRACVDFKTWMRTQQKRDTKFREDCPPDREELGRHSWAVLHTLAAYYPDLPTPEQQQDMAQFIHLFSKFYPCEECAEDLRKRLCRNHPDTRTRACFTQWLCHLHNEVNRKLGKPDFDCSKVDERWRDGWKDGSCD
Sequence of Voltage-dependent T-type calcium channel subunit alpha-1H (O95180 whole entry): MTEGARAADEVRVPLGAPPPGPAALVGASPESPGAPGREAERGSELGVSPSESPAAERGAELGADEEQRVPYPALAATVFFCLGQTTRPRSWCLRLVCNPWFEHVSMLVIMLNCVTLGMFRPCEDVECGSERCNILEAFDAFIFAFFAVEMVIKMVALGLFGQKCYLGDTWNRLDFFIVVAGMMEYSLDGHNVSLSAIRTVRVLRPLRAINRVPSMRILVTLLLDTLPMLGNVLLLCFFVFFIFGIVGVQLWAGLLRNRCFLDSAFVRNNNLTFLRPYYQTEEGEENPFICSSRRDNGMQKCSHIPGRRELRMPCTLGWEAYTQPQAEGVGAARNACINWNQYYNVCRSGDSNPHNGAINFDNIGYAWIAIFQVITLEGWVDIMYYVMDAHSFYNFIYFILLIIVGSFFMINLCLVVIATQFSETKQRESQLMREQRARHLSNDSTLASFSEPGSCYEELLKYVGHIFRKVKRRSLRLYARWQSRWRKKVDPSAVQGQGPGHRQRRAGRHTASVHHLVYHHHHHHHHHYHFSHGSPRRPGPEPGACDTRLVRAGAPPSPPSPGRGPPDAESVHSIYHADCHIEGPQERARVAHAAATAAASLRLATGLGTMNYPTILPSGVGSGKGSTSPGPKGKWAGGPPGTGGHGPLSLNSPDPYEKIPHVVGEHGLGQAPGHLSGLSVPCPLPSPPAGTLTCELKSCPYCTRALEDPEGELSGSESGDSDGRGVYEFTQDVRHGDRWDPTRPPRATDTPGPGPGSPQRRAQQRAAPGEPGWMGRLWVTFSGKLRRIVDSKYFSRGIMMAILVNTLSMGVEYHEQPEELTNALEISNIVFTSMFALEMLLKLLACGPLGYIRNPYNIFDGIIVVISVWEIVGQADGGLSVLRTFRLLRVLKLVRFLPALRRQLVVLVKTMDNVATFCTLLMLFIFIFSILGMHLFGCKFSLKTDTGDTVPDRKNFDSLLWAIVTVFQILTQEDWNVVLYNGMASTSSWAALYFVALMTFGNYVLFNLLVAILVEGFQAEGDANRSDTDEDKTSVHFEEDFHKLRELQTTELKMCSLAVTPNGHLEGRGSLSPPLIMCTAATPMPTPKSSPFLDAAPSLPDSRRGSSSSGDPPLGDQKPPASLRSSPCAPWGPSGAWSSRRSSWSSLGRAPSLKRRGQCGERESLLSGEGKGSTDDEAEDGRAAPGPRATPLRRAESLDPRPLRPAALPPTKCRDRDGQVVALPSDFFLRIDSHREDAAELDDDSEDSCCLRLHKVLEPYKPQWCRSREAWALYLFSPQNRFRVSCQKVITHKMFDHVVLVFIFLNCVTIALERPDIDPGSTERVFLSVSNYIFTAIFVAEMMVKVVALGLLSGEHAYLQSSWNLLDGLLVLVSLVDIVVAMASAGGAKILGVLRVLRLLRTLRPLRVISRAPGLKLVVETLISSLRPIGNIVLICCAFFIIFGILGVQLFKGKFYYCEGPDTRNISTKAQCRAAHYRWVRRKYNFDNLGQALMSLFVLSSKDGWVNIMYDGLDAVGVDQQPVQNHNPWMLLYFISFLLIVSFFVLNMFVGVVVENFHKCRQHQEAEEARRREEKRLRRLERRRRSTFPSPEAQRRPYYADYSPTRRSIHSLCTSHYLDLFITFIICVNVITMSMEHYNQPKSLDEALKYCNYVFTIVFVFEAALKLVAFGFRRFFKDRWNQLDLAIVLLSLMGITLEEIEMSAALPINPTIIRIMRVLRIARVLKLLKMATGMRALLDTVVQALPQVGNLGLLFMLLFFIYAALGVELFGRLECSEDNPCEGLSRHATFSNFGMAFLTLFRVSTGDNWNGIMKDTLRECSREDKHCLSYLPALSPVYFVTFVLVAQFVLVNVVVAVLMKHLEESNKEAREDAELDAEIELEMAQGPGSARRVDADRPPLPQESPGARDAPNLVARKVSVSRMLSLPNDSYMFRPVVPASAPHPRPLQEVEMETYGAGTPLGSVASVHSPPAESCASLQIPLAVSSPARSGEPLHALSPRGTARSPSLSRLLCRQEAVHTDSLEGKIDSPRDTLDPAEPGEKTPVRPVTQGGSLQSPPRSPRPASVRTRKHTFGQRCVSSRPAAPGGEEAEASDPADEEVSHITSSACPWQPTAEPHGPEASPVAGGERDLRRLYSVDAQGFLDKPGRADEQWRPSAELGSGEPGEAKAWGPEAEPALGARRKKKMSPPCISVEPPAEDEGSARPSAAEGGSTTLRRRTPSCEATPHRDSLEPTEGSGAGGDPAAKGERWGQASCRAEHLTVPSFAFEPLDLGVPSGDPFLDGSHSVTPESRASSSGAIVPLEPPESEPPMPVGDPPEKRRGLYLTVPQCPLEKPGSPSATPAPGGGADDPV
Sequence of Cytochrome P450 2D6 (P10635 whole entry): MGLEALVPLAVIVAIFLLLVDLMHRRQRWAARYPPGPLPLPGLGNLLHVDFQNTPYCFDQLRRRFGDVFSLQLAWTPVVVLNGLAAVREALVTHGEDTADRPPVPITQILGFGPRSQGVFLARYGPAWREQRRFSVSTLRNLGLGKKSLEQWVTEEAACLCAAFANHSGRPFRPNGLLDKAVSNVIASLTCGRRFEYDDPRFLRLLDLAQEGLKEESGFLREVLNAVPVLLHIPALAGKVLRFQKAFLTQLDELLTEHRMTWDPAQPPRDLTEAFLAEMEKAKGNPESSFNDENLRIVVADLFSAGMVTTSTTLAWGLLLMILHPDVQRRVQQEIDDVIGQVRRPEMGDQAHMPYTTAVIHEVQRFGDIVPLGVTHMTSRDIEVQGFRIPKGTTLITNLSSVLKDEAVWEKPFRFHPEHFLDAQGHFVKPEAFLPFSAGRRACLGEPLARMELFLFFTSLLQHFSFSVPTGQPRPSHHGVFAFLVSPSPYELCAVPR

Question: Which EC50 [1] does the source give for `CCCCN(C)c1nc(-c2ccco2)c2c(c1C#N)CC(C)(C)OC2` here?
Answer: 13.9 µM (active)

Question: And the EC50 [2]?
Answer: 13.9 µM (active)

Question: And the AC50 [3]?
Answer: 7.53 µM (active)

Question: With `O=C(Cc1cccs1)Nc1ccc(-c2nnn(CC(=O)N3CCOCC3)n2)cc1` as the compound, how does the IC50 (Estrogen receptor beta [4]) read?
Answer: 2.92 µM (active)

Question: And the IC50 (Estrogen receptor beta [5])?
Answer: > 50 µM (not active)

Question: Which IC50 [6] does the source give for `N#CC(C#N)=C(N)CSc1cccc[n+]1[O-]` here?
Answer: > 50 µM (not active)

Question: With `O=[N+]([O-])c1cc(/C=N/n2cnnc2)ccc1N1CCCC1` as the compound, how does the EC50 [7] read?
Answer: 16.9 µM (active)

Question: And the EC50 [8]?
Answer: 9.55 µM (active)

Question: And the IC50 [6]?
Answer: 36.6 µM (not active)

Question: Which IC50 (Leucine aminopeptidase) does the source give for `Cc1ccc(SCc2n[nH]c3c2C2(CCSCC2)C(C#N)=C(N)O3)cc1` here?
Answer: 91 µM (active)

Question: What about the AC50 [9] of the same compound?
Answer: 2.94 µM (active)

Question: And the EC50 (Protein RecA)?
Answer: 2.42 µM (active)

Question: Which EC50 [10] does the source give for `CCCN(CCC)CC(=O)Nc1cccc2c1OCO2` here?
Answer: > 50 µM (active)

Question: For `CC(C)(C)OC(=O)NCCCC[C@H](NC(=O)c1[nH]cnc1C(=O)NCc1ccccc1)C(=O)OC(C)(C)C`, which IC50 [6] is on record?
Answer: 10.5 µM (not active)

Question: For `Cc1ccccc1C(=O)Nc1nncs1`, which IC50 (Leucine aminopeptidase) is on record?
Answer: 25.4 µM (active)

Question: Which IC50 (Leucine aminopeptidase) does the source give for `CCOC(=O)c1c(NC(=O)C2C3C=CC(C3)C2C(=O)O)sc2c1CCC(C)C2` (stereo unspecified) here?
Answer: 15.7 µM (active)

Question: Which results are given for `O=C(CCC1CCCCC1)Nc1c2c(nn1-c1ccc(F)cc1)CS(=O)(=O)C2`?
Answer: EC50 [1]: > 20 µM (not active); EC50 [2]: > 20 µM (not active); AC50 (Cytochrome P450 2D6): 11.2 µM (inconclusive); AC50 (Cytochrome P450 2C9): 12.6 µM (inconclusive)

Question: Which IC50 (Leucine aminopeptidase) does the source give for `O=C(CC1Sc2ccccc2NC1=O)Nc1cccc(C(=O)O)c1` (stereo unspecified) here?
Answer: 2.94 µM (active)

Question: Which IC50 (Estrogen receptor beta [4]) does the source give for `CC(C)(C)c1nnc2sc(SC/C(O)=C(\C#N)c3nc4ccccc4[nH]3)nn2c1=O` here?
Answer: 4 µM (active)

Question: What about the IC50 (Estrogen receptor beta [5]) of the same compound?
Answer: 40.6 µM (not active)

Question: For `Cc1ccc(Cn2c(C)nc3c(c2=O)c2nc4ccccc4nc2n3Cc2ccco2)cc1`, which CC50 [11] is on record?
Answer: 29 µM (active)

Question: What about the IC50 [12] of the same compound?
Answer: > 20 µM (inactive)

Question: Which results are given for `CCC1Oc2ccc(C)cc2N(CC(=O)NCC2COc3ccccc3O2)C1=O` (stereo unspecified)?
Answer: EC50 [10]: > 50 µM (active); EC50 [13]: 5.63 µM (active)

Question: With `O=c1oc2ccccc2nc1/C=C(\O)c1ccccc1` as the compound, how does the EC50 [10] read?
Answer: > 50 µM (active)

Question: Which AC50 [14] does the source give for `O=C(N/N=C/c1ccc(O)c(O)c1)C1c2ccccc2Oc2ccccc21` here?
Answer: 0.439 µM (active)

Question: What about the IC50 [15] of the same compound?
Answer: 50.6 µM (active)

Question: What about the IC50 [12] of the same compound?
Answer: > 20 µM (inactive)

Source: ChEMBL document CHEMBL1201862, “PubChem BioAssay data set” (2004)
